Data as given in patent US7323260B2, “Lubricant, recording medium and carboxylic acid compound” (Sony Corporation, priority 2003, dated 2008).

Experiment: Evaluation of solubility in solvent
Format: physicochemical
Experimental: Solubility of lubricants which were used in Examples 1 to 11 and Comparative Example 3 in each of ethanol, acetone and toluene was evaluated. Evaluation results of solubility of the lubricants are shown in Table 10 by evaluation criteria as defined as follows: […]
Solubility of lubricants which were used in Examples 21 to 37 in each of ethanol, acetone and toluene was evaluated. Evaluation results of solubility of lubricants are shown in Table 19 by evaluation criteria as defined as follows: […]

solubility in a hydrocarbon type solvent (in words): hardly dissolved
Substance: C18H37CH(COOC12H25)(CH2)2COOCH2CF2(OCF2)p(OCF(CF3)CF2)qOCF3 [Comparative Example 3]
